Where a name gives a salt, the structure may show the parent alone. Read-outs that look alike come from different tables or passages of the source.
Tests used:
[1] = cited from earlier work
clinical = conditions: human, in vivo
Source text: Neither TPI renal clearance (CLren) nor or tubular secretory Clearance (CLsec) were associated with SNPs in MATE1 (rs2289669 or rs2252281) when tested individually (FIG. 8). […] (FIGS. 8-10). TPI is strongly associated with PFS and OS with regard to renal clearance difference by OCT2 and MATE1 gene-gene interaction.

Clrenal (clinical)	CL renal (clinical; Clrenal)	Compound	CLrenal and CLsec ([1]; healthy volunteers, OCT2 rs316019 heterozygote or homozygote along with MATE1 rs225281 heterozygote)	Clrenal ([1]; stratum 3 (MATE1 WT and OCT2 HM) compared with stratum 1 (MATE1 WT and OCT2 WT))
–	–	CN(C)C(=N)N=C(N)N [metformin, N,N-Dimethylimidodicarbonimidic diamide]	significantly lower	relatively higher
29.6 L/h	555 mL/min	N=C1CCCN1Cc1[nH]c(=O)[nH]c(=O)c1Cl [TPI, tipiracil hydrochloride]	–	–
